From patent US20040082554A1, “Neuroactive steroid derivatives and method of use” (priority 2003, published 2004)
“Also recorded” adds a separate entry of the source.

Key:
NMDA receptor [1] = assay: NMDA-induced striatal dopamine release, in vivo microdialysis; set-up: species or system rat
Procedure: In vivo Microdialysis. Prior to surgery the animals were anesthetized with sodium pentobarbital (50 mg/kg, i.p) and placed in a stereotaxic apparatus (David Kopf Instruments). A rostro-caudal incision was then made to expose the dorsal surface of the skull. A hole was drilled in the skull above the striatum with a stereotaxic drill (+0.5 mm A/P and +2.9 mm M/L relative to bregma, (Paxinos and Watson, 1997). Two other holes were drilled in the skull where screws were secured. A dialysis guide cannula (CMA Microdialysis; Acton, Mass.) was lowered 3 mm ventrally and was then secured to the skull with dental cement. All rats were housed in individual cages following surgery.
No less than two days after surgery, the rats were briefly anesthetized with isoflurane to facilitate the removal of the dummy from the guide cannula and insertion of a microdialysis probe (CMA 10, dialysis membrane length of 2 mm of polycarbonate, with a molecular weight cut off of 20 kD) into the striatum. Animals were allowed to recover for 15 min prior to the initiation of the experiment following probe insertion. Artificial cerebrospinal fluid (aCSF) was pumped through the dialysis probe at a rate of 2 μl/min. Twelve 20 min samples were collected over 240 min and immediately stored at −20° C. The first six 20 min samples were collected to establish the baseline concentration of dopamine. […] At this point the perfusate for the DMSO group was changed from aCSF to one of the following solutions: NMDA (1 mM) or NMDA (1 mM) plus D-AP5 (100-200 μM). The perfusate for the steroid group was switched from aCSF to NMDA (1 mM). After collection of sample 7, the perfusate was switched back to aCSF and 5 more 20 min samples were collected. Upon termination of the experiment, samples were stored at −80° C. until analysis.
All samples were analyzed using high pressure liquid chromatography (HPLC) with electrochemical detection (ESA; Chelmsford, Mass.). The mobile phase consisted of 50 mM Na2HPO4, 20 mM citric acid, 1.5 mM heptanosulfonic acid, 0.1 mM EDTA, and 5% methanol at pH 4.0. The dopamine was separated on a 15 cm reverse phase C-18 column (Alltech; Deerfield, Ill.) and oxidized at a potential of 175 mV. Dopamine concentrations per sample were normalized to an external standard curve and plotted as percentage change from baseline.

mice = assay: Tail flick test (latency to remove the tail from the light source); assay type: in vivo; conditions: for dose dependence of tail flick latency: mice, 5, 10 or 15 mg/kg i.p., tested every 10 min for 120 min
Procedure: FIG. 9. […] Following the injection the mice were tested for every 10 min for 120 min. The latency to remove the tail from the light source was used as a measure of analgesia. […] The values are mean+SEM for 10-15 mice for each group. Data were analyzed using a one-way ANOVA followed by Fisher's LSD.* Denotes significance compared to control.
FIG. 10. […] Mice were injected with PACME (5, 10 or 15 mg/kg). Following the injection the mice were tested for every 10 min for 120 min. The latency to remove the tail from the light source was used as a measure of analgesia. […] Data were analyzed using a one-way ANOVA followed by Fisher's LSD. The values are mean±SEM for 10-15 mice for each group.* Denotes significance compared to control.
The data were analyzed using a one-way ANOVA followed by Fisher's LSD.

NMDA receptors = conditions: in vitro studies, Park-Chung et al., 1994; cited from earlier work
rats = assay: Cocaine sensitization (horizontal activity after daily cocaine injections); assay type: in vivo, rat
Procedure: Cocaine Sensitization. Rats were habituated to the photocell apparatus (AccuScan Instruments; Columbus, Ohio) for two hours and administered saline (i.p.) one day prior to the start of the experiment. On the first day of the experiment, rats were rehabituated to the behavior boxes for one hour prior to the start of the experiment. […] Horizontal activity was measured for 2 hours after every cocaine injection. Saline-cocaine or 3α5βHS-cocaine were administered daily on 7 consecutive days.

NMDA receptor [2] = assay: Behavioral hyperactivity (horizontal activity) induced by intra-striatal microinjection of NMDA; assay type: in vivo, rat
Procedure: Microinjection Experiments. Rats were anesthetized with sodium pentobarbital (50 mg/kg, i.p.) and placed in a stereotaxic apparatus (David Kopf Instruments). A rostro-caudal incision was then made to expose the dorsal surface of the skull. Two bilateral holes were drilled above the striatum (+1.0 mm A/P, +3.0 mm M/L, −3.0 mm D/V relative to bregma, Paxinos and Watson, 1997) and guide cannulae (9 mm, 24 gauge) were implanted and fastened to the skull using screws and dental cement. All rats were housed in individual cages following surgery. Three days post surgery rats were habituated to the photocell apparatus (AccuScan Instruments; Columbus, Ohio) for two hours. On the day of the experiment rats were rehabituated for one hour prior to the start of the experiment. […] The animals were returned to the behavior boxes and activity was monitored continuously for 60 min.
Horizontal activity was measured in 5 min blocks for 60 min immediately following microinjection. The data were analyzed with a mixed factors analysis of variance (ANOVA) with repeated measures over time in FIG. 4A. […] The data in FIG. 4B represent the 10 min time point from FIG. 4A and was analyzed using a one-way ANOVA.

NC(CCCP(=O)(O)O)C(=O)O [D-AP5]
effect on NMDA-induced increase in extracellular striatal dopamine (NMDA receptor [1]; 100 μM or 200 μM co-perfused with 1 mM NMDA): inhibited; also recorded: attenuated in a dose-dependent manner

CC(=O)[C@H]1CC[C@H]2[C@@H]3CC[C@@H]4C[C@H](OCC(=O)O)CC[C@]4(C)[C@H]3CC[C@]12C [PACME, pregnanolone carboxy methyl ether]
tail flick latency at 90 and 120 min (mice; PACME 10 mg/kg): increased the latency
analgesia compared to control (pair-wise analysis) (mice; PACME 7 and 10 mg/kg, at 20, 30, 40, 60 min following injection): significant levels of analgesia
lengthening of tail flick latency relative to cut-off time (mice; PACME, dose not stated, cut-off time 10 seconds): near maximal lengthening of the latency time
dose dependence of tail flick latency (mice): increased the latency to remove the tail from the light source dose-dependently
duration of analgesic effect compared with morphine (2 mg/kg, s.c.) (mice; tail flick, mice): longer lasting
analgesia compared with morphine (mice; tail flick, mice, PACME vs morphine 2 mg/kg s.c.): analgesia similar to that of morphine

CN1CC[C@]23c4c5ccc(O)c4O[C@H]2[C@@H](O)C=C[C@H]3[C@H]1C5 [morphine, reference compound]
time of greatest analgesic effect following injection (mice; morphine 2 mg/kg s.c.): 20 min
analgesia compared to control (pair-wise analysis) (mice; morphine 2 mg/kg s.c., from 20 min to 60 or 90 min following injection): significant levels of analgesia

CC(=O)[C@H]1CC[C@H]2[C@@H]3CC[C@@H]4C[C@H](O)CC[C@]4(C)[C@H]3CC[C@]12C [pregnanolone]
effect on NMDA-induced increase in extracellular striatal dopamine (NMDA receptor [1]; 160 μg/kg i.p. (sub-sedative dose)): had no effect
effect on NMDA-induced increase in extracellular striatal dopamine (NMDA receptor [1]; 160 μg/kg i.p. (sub-sedative dose), listed as Pregnanolone): no influence

pregnanolone hemisuccinate [3α5βHS]
action on NMDA receptors in vitro (NMDA receptors): inhibits NMDA receptors
tail flick latency at 90 and 120 min (mice; 3α5βHS 15 mg/kg, compared to the other groups): effective in increasing the latency
analgesia compared to control (pair-wise analysis) (mice; 10 and 15 mg/kg i.p., at 20, 30, 40, 60, 90 min): significant levels of analgesia
dose dependence of tail flick latency (mice): dose-dependent increase in tail flick latency; also recorded: increased the latency to remove the tail from the light source dose-dependently
duration of analgesic effect compared with morphine (2 mg/kg, s.c.) (mice; tail flick, mice): longer lasting
effect on development of behavioral sensitization to cocaine (rats; 10 mg/kg i.p. 10 min prior to each of 7 daily cocaine injections (15 mg/kg i.p.)): inhibits the initiation of behavioral sensitization to cocaine; also recorded: inhibited the development of behavioral sensitization to cocaine
effect on behavioral hyperactivity induced by saline administration or an acute cocaine injection (rats; highest dose used): had no effect
effect on NMDA-induced increase in extracellular striatal dopamine (NMDA receptor [1]; 5, 10 and 20 mg/kg i.p., 20 and 40 min following NMDA perfusion): inhibits NMDA-induced dopamine release; also recorded: blocked
EC50 for inhibition of NMDA-induced dopamine release (NMDA receptor [1]; i.p. injection, 1 mM NMDA perfusion, at 20 min): 4 mg/kg
sedation (saline+3α5βHS vs saline+vehicle horizontal activity) (NMDA receptor [2]; 10 mg/kg i.p., any time point): did not induce sedation
effect on NMDA-induced behavioral activation (horizontal activity) (NMDA receptor [2]; 1 and 10 mg/kg i.p. 10 min prior to intra-striatal NMDA, 10 min time point): decrease in horizontal activity; also recorded: blocked
